Here are results for 6 compounds from patent US20200179269A1, “VAPORIZABLE COMPOSITIONS COMPRISING CANNABINOL” (KANABO RESEARCH LTD., priority 2017, published 2020).

The experiment concerns Loss of Righting Reflex (LORR) in mice. In words: Sleep induction model in mice: Loss of Righting Reflex (LORR) after Pentobarbital, sleep latency and sleep duration. It counts as in vivo, mice BALB/c. Set-up: Sleep latency median / Sleep latency (mean) / Sleep duration median / Sleep duration (mean): unit not given here. The text has this: The objective of the present study is to evaluate various cannabinoid mixtures with terpenes in the sleep induction model in mice and then in the second part optimize the doses.
Study Variables and End Points • Mortality and morbidity—once a day. • Body weight—during acclimation and before dosing. • Behavioral test—righting reflex—sleep latency and duration
The principle of the study is based on the ability of sleep promoting agents to shorten the time until Loss of Righting Reflex (LORR) occurs and prolong the presence of LORR in rodents treated with established anesthetizing agent.
Mice were be utilized and divided into 62 groups of three in each group.
Combinations of 3 different cannabinoids: CBN, CBD and THC and 2 terpenes: (β-myrcene and linalool were tested. Diazepam (2 mg/kg) was used as a positive control. Ethanol:Cremophor:Saline (1:1:18) was used as negative control. The items were dissolved in Ethanol:Cremophor:Saline. The items, positive and negative controls were IP injected. Three (or four) mice were used for each group. 5 cycles of experiments were performed. In Cycles 1 each cannabinoid at different concentrations was separately administered; in Cycle 2—combinations of the cannabinoids with different concentration were administered (4 mice per group were used for items), in Cycle 3—different terpenes at different concentration were administered, in Cycle 4—combinations of different cannabinoids and terpenes were administered and in Cycle 5—compositions with high content of cannabinoids and low content of terpenes were tested (4 mice per group).
Female mice BALB/c strain of 7 weeks age were used for the experiment. The mice were allowed to acclimatize for at least 5 days. Animals were fed ad libitum a commercial rodent diet (Teklad Certified Global 18% Protein Diet, Harlan cat #2018). Animals had free access to sterilized and acidified drinking water (pH between 2.5 and 3.5) obtained from the municipality supply. Animals were housed under standard laboratory conditions, air conditioned and filtered (HEPA F6/6) with adequate fresh air supply (Minimum 15 air changes/hour). Animals were kept in a climate controlled environment. Temperatures range were 18-24° C. and relative humidity range 30-70% with a 12 hours light and 12 hours dark cycle (6 AM/6 PM).
The duration of the study was one day per cycle. The study was conducted in five cycles (see Tables 10-15). Each Test Item or vehicle formulation was administrated to three (or four) animals per group. Morbidity and mortality was checked once a day.
Sleeping Test was performed according to Pharmaseed's SOP No. 130: “Loss of Righting Reflex”. Mice were injected intraperitoneally (IP) with the positive control Diazepam (2 mg/kg, IP), vehicle or with the Test Items 30 minutes prior to Pentobarbital (40 mg/kg, IP) administration. Observation of the mouse begun immediately after administration of Pentobarbital. Once the mouse was asleep (the loss of righting reflex—LORR), it was be transferred to a home cage and placed on its back. Mice was considered awake when they could successfully upright themselves (all four feet in contact with the surface). Once a mouse righted itself, it was placed on its back once again and allowed to right a second time for confirmation. Expected sleep onset and duration of the negative control group was 5-8 min and 20-25 min, respectively. For positive control expected sleep onset and duration were 3-4 min and 40-50 min, respectively.
While the animals were asleep, fatty ophthalmic ointment (e.g. Duratears®) was be applied to their eyes to avoid drying of the eye. Also, since Diazepam might cause hypothermia, the cages with the sleeping mice were be placed on a heating pad.
The following parameters were be recorded and served as an index of sleep behavior: • Sleep latency—time required to sleep induction. • Sleep duration.
At termination, the animals were sacrificed by CO2 asphyxiation.

[1] abbreviates: Cycle 4, group 43F, Diazepam 2 mg/kg.
Where [2] appears, read: Cycle 1, high doses (above 5 mg/kg).

With `C=CC(=C)CCC=C(C)C` [Myrcene, β-myrcene], for the setting “Cycle 3, Dose 20, IP”, the “Sleep duration (mean)” value is listed as “(8.7)”, the Sleep duration median was 9, the “Sleep latency (mean)” value is reported as “(4.7)” and the Sleep latency median is 5. Where the note is “Cycle 3, Dose 100, IP”, the “Sleep duration (mean)” value is listed as “(7.3)”, the Sleep duration median amounted to 7, the “Sleep latency (mean)” value is on record as “(5)” and the Sleep latency median stood at 5. Under “Cycle 3, Dose 300, IP”, the “Sleep duration (mean)” value was “(61.3)”, the Sleep duration median was 31, the “Sleep latency (mean)” value is listed as “(3)” and the Sleep latency median turned out to be 3. In addition, the “dose response of the terpene in combination with CBN and CBD” value (Cycle 4) is given as “evident dose response”. Moreover, for the setting “Cycle 5, dose 10 mg/kg IP”, the “Sleep duration (mean)” value was “(5)”, the Sleep duration median was determined as 5, the “Sleep latency (mean)” value is given as “(5)” and the Sleep latency median was 5.
On to `CN1C(=O)CN=C(c2ccccc2)c2cc(Cl)ccc21` [Diazepam, reference compound], for which the “state of the mice after awakening” value (Cycle 1) was “remained dizzy for a prolonged period of time”. In addition, where the note is “Cycle 1, dose 2 mg/kg IP”, the “Sleep duration (mean)” value is reported as “(94)”, the Sleep duration median was determined as 94, the “Sleep latency (mean)” value is recorded as “(3)” and the Sleep latency median stood at 2. For the setting “Cycle 2, dose 2 mg/kg IP”, the “Sleep duration (mean)” value is listed as “(51.7)”, the Sleep duration median is 56, the “Sleep latency (mean)” value is recorded as “(4.3)” and the Sleep latency median came out at 4. Besides, for the setting “Cycle 3, Dose 2, IP”, the “Sleep duration (mean)” value is listed as “(66.3)”, the Sleep duration median came to 60, the “Sleep latency (mean)” value was “(2.3)” and the Sleep latency median was determined as 2. Also, under setting [1], the “Sleep duration (mean)” value is “(76)”, the Sleep duration median is reported as 69, the “Sleep latency (mean)” value is “(3.3)” and the Sleep latency median was 3.
On to `CCCCCc1cc(O)c2c(c1)OC(C)(C)c1ccc(C)cc1-2` [CBN, 6,6,9-trimethyl-3-pentylbenzo[c]chromen-1-ol], for which, where the note is “Cycle 1”, the “dose response for duration of sleep parameter” value is given as “moderate dose response”. In addition, under “Cycle 1, dose 0.1 mg/kg IP”, the “Sleep duration (mean)” value is given as “(26)”, the Sleep duration median was 34, the “Sleep latency (mean)” value is listed as “(5)” and the Sleep latency median worked out at 4. Under “Cycle 1, dose 0.5 mg/kg IP”, the “Sleep duration (mean)” value is “(14)”, the Sleep duration median turned out to be 15, the “Sleep latency (mean)” value is reported as “(8)” and the Sleep latency median is recorded as 8. Besides, under “Cycle 1, dose 2 mg/kg IP”, the “Sleep duration (mean)” value is “(23)”, the Sleep duration median is reported as 25, the “Sleep latency (mean)” value is listed as “(6)” and the Sleep latency median was found to be 6. Also, under “Cycle 1, dose 5 mg/kg IP”, the “Sleep duration (mean)” value is reported as “(31)”, the Sleep duration median is reported as 32, the “Sleep latency (mean)” value is recorded as “(9)” and the Sleep latency median was 8.
For `CCCCCc1cc(O)c2c(c1)OC(C)(C)[C@@H]1CCC(C)=C[C@@H]21` [THC, tetrahydrocannabinol], for the setting “Cycle 1”, the “state of the mice after awakening” value is given as “much more vivid after awakening”. For the setting “Cycle 1, dose 0.5 mg/kg IP”, the “Sleep duration (mean)” value was “(6)”, the Sleep duration median turned out to be 8, the “Sleep latency (mean)” value is reported as “(4)” and the Sleep latency median was 4. Further, where the note is “Cycle 1, dose 2 mg/kg IP”, the “Sleep duration (mean)” value is reported as “(12)”, the Sleep duration median came to 0, the “Sleep latency (mean)” value was “(20)” and the Sleep latency median is given as 20. For the setting “Cycle 1, dose 5 mg/kg IP”, the “Sleep duration (mean)” value is “(10)”, the Sleep duration median stood at 9, the “Sleep latency (mean)” value was “(25)” and the Sleep latency median amounted to 24. Besides, where the note is “Cycle 1, dose 10 mg/kg IP”, the “Sleep duration (mean)” value was “(21)”, the Sleep duration median was determined as 11, the “Sleep latency (mean)” value is listed as “(11)” and the Sleep latency median is on record as 11. In addition, under setting [2], the “effect on sleep duration” value is on record as “decreases the sleep duration” and the “effect on sleep latency (time required for falling asleep)” value is given as “increases the sleep latency”. In addition, under “Cycle 1, medium concentrations (2-5 mg/kg)”, the “effect on onset of sleep” value was “increases the onset of sleep”. Besides, where the note is “Cycle 4, 0.5 mg/kg”, the “effect of addition to the combination of CBN, CBD and terpene” value is given as “reduced the observed effect”.
Take `C=C(C)[C@@H]1CCC(C)=C[C@H]1c1c(O)cc(CCCCC)cc1O` [CBD, cannabidiol]: under “Cycle 1, 1 mg/kg dose”, the effect on sleeping result is “assisted in sleeping”. Under “Cycle 1, dose 1 mg/kg IP”, the “Sleep duration (mean)” value is recorded as “(14)”, the Sleep duration median is on record as 9, the “Sleep latency (mean)” value is on record as “(13)” and the Sleep latency median turned out to be 16. In addition, where the note is “Cycle 1, dose 5 mg/kg IP”, the “Sleep duration (mean)” value is “(49)”, the Sleep duration median was determined as 49, the “Sleep latency (mean)” value was “(6)” and the Sleep latency median was 6. Moreover, under “Cycle 1, dose 20 mg/kg IP”, the “Sleep duration (mean)” value is given as “(48)”, the Sleep duration median came out at 48, the “Sleep latency (mean)” value is reported as “(8)” and the Sleep latency median stood at 9. Further, for the setting “Cycle 1, dose 50 mg/kg IP”, the “Sleep duration (mean)” value is “(84)”, the Sleep duration median is reported as 68, the “Sleep latency (mean)” value is “(6)” and the Sleep latency median came to 6.
In the case of `C=CC(C)(O)CCC=C(C)C` (stereo not shown) [Linalool, linalool], under “Cycle 3, Dose 20, IP”, the “Sleep duration (mean)” value is “(5.3)”, the Sleep duration median is recorded as 6, the “Sleep latency (mean)” value was “(5)” and the Sleep latency median is reported as 5. Besides, where the note is “Cycle 3, Dose 100, IP”, the “Sleep duration (mean)” value is reported as “(5.3)”, the Sleep duration median was 6, the “Sleep latency (mean)” value is given as “(5.5)” and the Sleep latency median is reported as 5. Moreover, under “Cycle 3, Dose 300, IP”, the “Sleep duration (mean)” value is on record as “(97.3)”, the Sleep duration median came to 120, the “Sleep latency (mean)” value was “(2)” and the Sleep latency median was 2. Under “Cycle 4”, the “dose response of the terpene in combination with CBN and CBD” value was “evident dose response”. Under “Cycle 5, dose 10 mg/kg IP”, the “Sleep duration (mean)” value is recorded as “(6)”, the Sleep duration median stood at 6.5, the “Sleep latency (mean)” value is on record as “(8)” and the Sleep latency median is recorded as 8.
